# In the supplement of paper PMC10307832:
# Tests used:
# Assay in all cases: relative viability (nuclei count vs DMSO), 5 days (fraction); higher = more cells survive
# [1] = system: NCI-H1975
# How it was run: (§1)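 Nuclei were stained with Hoechst during a one-step fixation (final 0.05% Triton X-100, 1% formaldehyde, 1 ug/ml Hoechst) carried out 5 days after dosing, then counted on 4× images. The cells, lung cancer lines in 1536-well plates, had been dosed by pin tool the day after seeding with one drug alone or a fixed anchor-drug dose plus five library-drug doses (not always all listed) in √10 steps. Relative viability is the nuclei count in treated wells divided by that in vehicle wells, and each value is the median of duplicate plates.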
# [2] = system: NCI-H460
# How it was run: as §1
# [3] = system: NCI-H441
# How it was run: as §1
# [4] = system: SK-LU-1
# How it was run: as §1
# [5] = system: NCI-H1944
# How it was run: as §1
# [6] = system: PC-3 [JPC-3]
# How it was run: as §1
# [7] = system: NCI-H1755
# How it was run: as §1
# [8] = system: NCI-H2347
# How it was run: as §1
# [9] = system: EMC-BAC-2
# How it was run: as §1
# [10] = system: NCI-H1355
# How it was run: as §1
# [11] = system: LCLC-97TM1
# How it was run: as §1
# [12] = system: NCI-H2126
# How it was run: as §1
# [13] = system: NCI-H727
# How it was run: as §1
# [14] = system: NCI-H647
# How it was run: as §1
# [15] = system: NCI-H2170
# How it was run: as §1
# [16] = system: NCI-H1993
# How it was run: as §1
# [17] = system: NCI-H520
# How it was run: as §1
# [18] = system: NCI-H2009
# How it was run: as §1
# [19] = system: SW 1573
# How it was run: as §1
# [20] = system: PC-14
# How it was run: as §1
# [21] = system: ABC-1
# How it was run: as §1
# [22] = system: NCI-H1666
# How it was run: as §1
structure (smiles),measurement,setting,value
O=c1[nH]c2ccccc2n1C1CCN(CCCC(c2ccc(F)cc2)c2ccc(F)cc2)CC1 [Pimozide] + C[C@@H](Oc1cc(-c2cnn(C3CCNCC3)c2)cnc1N)c1c(Cl)ccc(F)c1Cl [Crizotinib] (partner 1 µM),relative viability,[1]; first compound 0.08 µM,0.919
same,relative viability,[1]; first compound 0.253 µM,1.02
same,relative viability,[1]; first compound 0.8 µM,0.83
same,relative viability,[1]; first compound 2.53 µM,0.882
same,relative viability,[1]; first compound 8 µM,0.73
same,relative viability,[2]; first compound 0.08 µM,0.841
same,relative viability,[2]; first compound 0.253 µM,0.671
same,relative viability,[2]; first compound 0.8 µM,0.899
same,relative viability,[2]; first compound 2.53 µM,0.871
same,relative viability,[2]; first compound 8 µM,0.89
same,relative viability,[3]; first compound 0.08 µM,0.608
same,relative viability,[3]; first compound 0.253 µM,0.646
same,relative viability,[3]; first compound 0.8 µM,0.652
same,relative viability,[3]; first compound 2.53 µM,0.568
same,relative viability,[3]; first compound 8 µM,0.693
same,relative viability,[4]; first compound 0.08 µM,0.895
same,relative viability,[4]; first compound 0.253 µM,0.792
same,relative viability,[4]; first compound 0.8 µM,0.912
same,relative viability,[4]; first compound 2.53 µM,0.786
same,relative viability,[4]; first compound 8 µM,0.769
same,relative viability,[5]; first compound 0.08 µM,0.992
same,relative viability,[5]; first compound 0.253 µM,1.03
same,relative viability,[5]; first compound 0.8 µM,1.05
same,relative viability,[5]; first compound 2.53 µM,0.967
same,relative viability,[5]; first compound 8 µM,0.939
same,relative viability,[6]; first compound 0.253 µM,0.878
same,relative viability,[6]; first compound 0.8 µM,0.91
same,relative viability,[6]; first compound 2.53 µM,0.915
same,relative viability,[6]; first compound 8 µM,0.854
same,relative viability,[7]; first compound 0.08 µM,0.881
same,relative viability,[7]; first compound 0.253 µM,0.845
same,relative viability,[7]; first compound 0.8 µM,0.794
same,relative viability,[7]; first compound 2.53 µM,0.792
same,relative viability,[7]; first compound 8 µM,0.697
same,relative viability,[8]; first compound 0.08 µM,0.807
same,relative viability,[8]; first compound 0.253 µM,0.661
same,relative viability,[8]; first compound 0.8 µM,0.545
same,relative viability,[8]; first compound 2.53 µM,0.517
same,relative viability,[8]; first compound 8 µM,0.51
same,relative viability,[9]; first compound 0.08 µM,0.752
same,relative viability,[9]; first compound 0.253 µM,0.79
same,relative viability,[9]; first compound 0.8 µM,0.691
same,relative viability,[9]; first compound 2.53 µM,0.616
same,relative viability,[9]; first compound 8 µM,0.691
same,relative viability,[10]; first compound 0.08 µM,1.08
same,relative viability,[10]; first compound 0.253 µM,0.988
same,relative viability,[10]; first compound 0.8 µM,0.959
same,relative viability,[10]; first compound 2.53 µM,0.937
same,relative viability,[10]; first compound 8 µM,1.06
same,relative viability,[11]; first compound 0.08 µM,0.337
same,relative viability,[11]; first compound 0.253 µM,0.356
same,relative viability,[11]; first compound 0.8 µM,0.296
same,relative viability,[11]; first compound 2.53 µM,0.424
same,relative viability,[11]; first compound 8 µM,0.413
same,relative viability,[12]; first compound 0.08 µM,1.06
same,relative viability,[12]; first compound 0.253 µM,0.976
same,relative viability,[12]; first compound 0.8 µM,0.976
same,relative viability,[12]; first compound 2.53 µM,1.02
same,relative viability,[12]; first compound 8 µM,1
same,relative viability,[13]; first compound 0.08 µM,0.958
same,relative viability,[13]; first compound 0.253 µM,0.791
same,relative viability,[13]; first compound 0.8 µM,0.855
same,relative viability,[13]; first compound 2.53 µM,0.765
same,relative viability,[13]; first compound 8 µM,0.756
same,relative viability,[14]; first compound 0.08 µM,1.03
same,relative viability,[14]; first compound 0.253 µM,1.04
same,relative viability,[14]; first compound 0.8 µM,0.988
same,relative viability,[14]; first compound 2.53 µM,0.919
same,relative viability,[14]; first compound 8 µM,0.544
same,relative viability,[15]; first compound 0.08 µM,1.03
same,relative viability,[15]; first compound 0.253 µM,1.14
same,relative viability,[15]; first compound 0.8 µM,1.06
same,relative viability,[15]; first compound 2.53 µM,1.22
same,relative viability,[15]; first compound 8 µM,1.07
same,relative viability,[16]; first compound 0.08 µM,0.818
same,relative viability,[16]; first compound 0.253 µM,0.816
same,relative viability,[16]; first compound 0.8 µM,0.816
same,relative viability,[16]; first compound 2.53 µM,0.859
same,relative viability,[16]; first compound 8 µM,0.898
same,relative viability,[17]; first compound 0.08 µM,0.817
same,relative viability,[17]; first compound 0.253 µM,0.802
same,relative viability,[17]; first compound 0.8 µM,0.702
same,relative viability,[17]; first compound 2.53 µM,0.819
same,relative viability,[17]; first compound 8 µM,0.675
same,relative viability,[18]; first compound 0.08 µM,1.02
same,relative viability,[18]; first compound 0.253 µM,0.995
same,relative viability,[18]; first compound 0.8 µM,1.09
same,relative viability,[18]; first compound 2.53 µM,1.01
same,relative viability,[18]; first compound 8 µM,0.889
same,relative viability,[19]; first compound 0.08 µM,0.797
same,relative viability,[19]; first compound 0.253 µM,0.759
same,relative viability,[19]; first compound 0.8 µM,0.803
same,relative viability,[19]; first compound 2.53 µM,0.805
same,relative viability,[19]; first compound 8 µM,0.779
same,relative viability,[20]; first compound 0.253 µM,0.84
same,relative viability,[20]; first compound 0.8 µM,0.943
same,relative viability,[20]; first compound 2.53 µM,0.934
same,relative viability,[20]; first compound 8 µM,0.978
same,relative viability,[21]; first compound 0.08 µM,1.03
same,relative viability,[21]; first compound 0.253 µM,0.604
same,relative viability,[21]; first compound 0.8 µM,0.783
same,relative viability,[21]; first compound 2.53 µM,0.755
same,relative viability,[21]; first compound 8 µM,0.606
same,relative viability,[22]; first compound 0.08 µM,0.882
same,relative viability,[22]; first compound 0.253 µM,0.913
same,relative viability,[22]; first compound 0.8 µM,1.02
same,relative viability,[22]; first compound 2.53 µM,0.751
same,relative viability,[22]; first compound 8 µM,0.789
